Results on 20 molecules are retold here after US8877801B2, “Compounds and compositions as selective estrogen receptor degraders” (Novartis AG, priority 2013, dated 2014).

Like-named read-outs stand apart in the source and are kept apart here.

Assay [1] concerns the target T1, ERα (Homo sapiens, UniProt P03372).
T1 construct: transfected in MCF7 cells (containing endogenous ER); endogenous in cells; host or cells: MCF7 cells
T1 sequence (P03372 1-595): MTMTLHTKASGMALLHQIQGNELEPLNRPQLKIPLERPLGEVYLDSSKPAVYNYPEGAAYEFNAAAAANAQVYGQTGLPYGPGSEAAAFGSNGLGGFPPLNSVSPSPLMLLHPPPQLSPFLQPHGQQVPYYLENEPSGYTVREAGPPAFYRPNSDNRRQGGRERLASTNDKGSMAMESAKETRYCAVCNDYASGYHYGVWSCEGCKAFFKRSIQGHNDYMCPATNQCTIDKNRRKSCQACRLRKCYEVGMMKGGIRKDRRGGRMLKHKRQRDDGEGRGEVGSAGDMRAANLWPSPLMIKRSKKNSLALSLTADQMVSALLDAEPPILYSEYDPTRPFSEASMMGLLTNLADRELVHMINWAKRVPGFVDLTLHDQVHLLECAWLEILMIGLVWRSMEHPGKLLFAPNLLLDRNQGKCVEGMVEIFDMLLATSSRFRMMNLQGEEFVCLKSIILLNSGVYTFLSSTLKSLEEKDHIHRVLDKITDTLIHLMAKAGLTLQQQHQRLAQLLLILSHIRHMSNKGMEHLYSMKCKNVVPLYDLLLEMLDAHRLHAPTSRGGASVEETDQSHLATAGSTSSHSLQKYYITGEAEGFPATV
Put plainly: ERα degradation (MCF7 cells), in-cell Western. Type of assay: cell-based. As to conditions: for % ERα remaining: 10 μM concentration of the ligand, MCF7 cells, 18-24 hours, relative to DMSO control. Here is the method:
ERα Degradation (MCF7 Cells)
(§1) The data describing the antagonist and degradation properties for the examples is compiled in table 10. The column titled MCF7 IC50 reports the inflection point of the inhibition of transcription in MCF7 cells as described above. Percentage ERα remaining reports the remaining ERα protein measured at 10 μM concentration of the ligand as described above. The column ERα IC50 reports the inflection point of the degradation in response to the ligand concentration.

In assay [2] the target is T2, ER (Homo sapiens, UniProt P03372).
T2 construct: transfected in MCF7 cells (containing endogenous ER); endogenous in cells; host or cells: MCF7 cells
T2 sequence (P03372 1-595): T1 sequence (P03372 1-595)
Put plainly: ER transcription assay (MCF7 cells), ERE-luciferase reporter. It counts as cell-based.
From the text: ER Transcription Assay (MCF7 Cells)
The ER transcription assay is a reporter assay that is based on the ability of ER to induce transcription from a luciferase reporter gene containing estrogen response elements (EREs) in the promoter/enhancer region. When the reporter gene is transfected in MCF7 cells (containing endogenous ER), transcription is reflected by the level of luciferase expression.
A day before transfection, cells are split into a T75 flask at a cell density of 300,000 cells/mL (10 mL total) and allowed to attach overnight in a humidified CO2 incubator at 37° C.
Approximately 20 ug DNA is mixed in OptiMEM (Invitrogen) to a total volume of 650 μL. Following incubation, the OptiMEM-DNA mixture is added to the OptiMEM-Lipofectin mix and incubated for 15 minutes at 37° C. The DNA-Lipofectin mixture is then added directly to the T75 flask and the flask is returned to the incubator.
After overnight incubation, compound is added to individual wells of a 96-well plate in a 10 μL volume of media at 10× concentration along with 17β estradiol whose final concentration is 0.1 nM. Normally, DMSO (used as a vehicle) is included to achieve a final concentration of 0.1% when added to the cells. Transfected cells are trypsinized, resuspended in DMEM/F12/10% charcoal-stripped serum and added to the 96-well plate at 25,000 cells/well in 90 μL of media. The plate is then returned to the incubator for 24 hours.
After incubation with compounds for 24 hours, Firefly and Renilla luciferase activities are measured to determine ER transcriptional activity. Media is removed from 96-well plates by decanting and blotting on paper towels.
One second total read time after a one second delay.
One second total read time after one second delay. If Firefly luciferase signal is high, Renilla assay must be done an hour after the Firefly assay due to incomplete squelching of Firefly signal.
as §1
In general terms: Reporter assays use an easily measured gene product as a stand-in for the process of interest.

The mark [3] stands for this setting: comparison of groups at the X position.
[4] abbreviates: comparison of groups at the X position, read-out: IC50 MCF7 μM (antagonist activity).
Where [5] appears, read: comparison of bond order between the phenyl and -C(O)OH.
The mark [6] stands for this setting: comparison of bond order between the phenyl and -C(O)OH, read-out: SERD IC50 MCF7 μM (antagonist activity).
Setting [7] is: MCF7 cells, ER reporter gene, 0.1 nM 17β estradiol, 24 hours, read-out: MCF7 IC50 (inflection point of the inhibition of transcription in MCF7 cells).

Regarding `O=C(O)/C=C/c1ccc(-c2c(-c3ccc(O)cc3)sc3cc(O)ccc23)cc1` [reference compound], the “ER Percentage remaining (degradation potential)” value (“ER Percentage remaining” for short) in assay [1] (setting [3]) amounted to 76%. In addition, in assay [2] (setting [4]), the IC50 (usually the concentration that gives 50% inhibition) is more than 10000 nM.

Consider `O=C(O)c1ccc(Oc2c(-c3ccc(O)cc3)sc3cc(O)ccc23)cc1` [reference compound], for which the “ER Percentage remaining” value in assay [1] (setting [5]) is listed as 57%. In addition, the IC50 in assay [2] (setting [6]) was not below 10000 nM.

With `CNC(=O)/C=C/c1ccc(Oc2c(-c3ccc(O)cc3)sc3cc(O)ccc23)cn1` [Example 71, (E)-3-(5-((6-hydroxy-2-(4-hydroxyphenyl)benzo[b]thiophen-3-yl)oxy)pyridin-2-yl)-N-methylacrylamide], the “% ERα remaining” value in assay [1] is given as 39%. In assay [2] (setting [7]), the IC50 amounted to 53 nM.

Consider `CNC(=O)/C=C/c1ccc(Oc2c(-c3ccc(C(F)(F)F)cc3)sc3cc(O)ccc23)cc1` [Example 70, (E)-3-(4-((6-hydroxy-2-(4-(trifluoromethyl)phenyl)benzo[b]thiophen-3-yl)oxy)phenyl)-N-methylacrylamide], for which the “% ERα remaining” value in assay [1] worked out at 41%. Further, in assay [2] (setting [7]), the IC50 was 269 nM.

Regarding `CCCn1cnc(/C=C/c2ccc(Oc3c(-c4ccc(O)cc4)sc4cc(O)ccc34)cc2)c1` [Example 74, (E)-2-(4-hydroxyphenyl)-3-(4-(2-(1-propyl-1H-imidazol-4-yl)vinyl)phenoxy)benzo [b]thiophen-6-ol], the “% ERα remaining” value in assay [1] turned out to be 41%. In addition, the IC50 in assay [2] (setting [7]) was found to be 108 nM.

On to `Oc1ccc(-c2sc3cc(O)ccc3c2Oc2ccc(/C=C/c3c[nH]cn3)cc2)cc1` [Example 72, (E)-3-(4-(2-(1H-imidazol-4-yl)vinyl)phenoxy)-2-(4-hydroxyphenyl)benzo[b]thiophen-6-ol], for which, in assay [1], the “% ERα remaining” value is 47%. In addition, the IC50 in assay [2] (setting [7]) came to 125 nM.

As to `Cn1cnc(/C=C/c2ccc(Oc3c(-c4ccc(O)cc4)sc4cc(O)ccc34)cc2)c1` [Example 73, (E)-2-(4-hydroxyphenyl)-3-(4-(2-(1-methyl-1H-imidazol-4-yl)vinyl)phenoxy)-benzo[b]thiophen-6-ol], the “% ERα remaining” value in assay [1] amounted to 32%. Moreover, in assay [2] (setting [7]), the half-maximal inhibitory concentration (IC50) is 58 nM.

For the molecule `CNC(=O)/C=C/c1ccc(Oc2c(-c3ccc(O)c(F)c3)sc3cc(O)ccc23)cc1` [Example 69, (E)-3-(4-((2-(3-fluoro-4-hydroxyphenyl)-6-hydroxybenzo[b]thiophen-3-yl)oxy)phenyl)-N-methylacrylamide], the “% ERα remaining” value in assay [1] was 32%. The IC50 in assay [2] (setting [7]) is 41 nM.

Regarding `COc1cc(Oc2c(-c3ccc(O)cc3)sc3cc(O)ccc23)ccc1/C=C/C(=O)O` [Example 58, (E)-3-(4-((6-hydroxy-2-(4-hydroxyphenyl)-benzo[b]thiophen-3-yl)oxy)-2-methoxyphenyl)acrylic acid], in assay [1], the “% ERα remaining” value was 35%. For the same molecule, the 50% inhibitory concentration (IC50) in assay [2] (setting [7]) came to 5020 nM.

In the case of `CCCn1cncc1/C=C/c1ccc(Oc2c(-c3ccc(O)cc3)sc3cc(O)ccc23)cc1` [Example 75, (E)-2-(4-hydroxyphenyl)-3-(4-(2-(1-propyl-1H-imidazol-5-yl)vinyl)phenoxy)benzo[b] thiophen-6-ol], the “% ERα remaining” value in assay [1] came to 42%. Moreover, the concentration for half-maximal inhibition (IC50) in assay [2] (setting [7]) was 10 nM.

For the molecule `O=C(O)CCCc1ccc(Oc2c(-c3ccc(O)cc3)sc3cc(O)ccc23)cc1` [reference compound], the “ER Percentage remaining” value in assay [1] (setting [5]) is recorded as 55%. For the same molecule, the half-inhibitory concentration (IC50) in assay [2] (setting [6]) was not below 10000 nM.

Turning to `O=C(O)/C=C/c1ccc(C(=O)c2c(-c3ccc(O)cc3)sc3cc(O)ccc23)cc1` [reference compound], in assay [1] (setting [3]), the “ER Percentage remaining” value came to 60%. For the same molecule, the concentration for half-maximal inhibition (IC50) in assay [2] (setting [4]) is more than 10000 nM.

With `Cc1cc(F)ccc1-c1sc2cc(O)ccc2c1Oc1ccc(/C=C/c2nnc(C3CC3)o2)cc1` [Example 76, (E)-3-(4-(2-(5-cyclopropyl-1,3,4-oxadiazol-2-yl)vinyl)phenoxy)-2-(4-fluoro-2-methylphenyl)benzo[b]-thiophen-6-ol], the “% ERα remaining” value in assay [1] is reported as 36%. Besides, the concentration for half-maximal inhibition (IC50) in assay [2] (setting [7]) stood at 16 nM.

As for `C[C@H](O)c1ccccc1-c1sc2cc(O)ccc2c1Oc1ccc(/C=C/C(=O)O)cc1` [Example 25, (S,E)-3-(4-((6-hydroxy-2-(2-(1-hydroxyethyl)phenyl)-benzo[b]thiophen-3-yl)oxy)phenyl)acrylic acid], in assay [2] (setting [7]), the IC50 is 179 nM.

As for `Cc1ccc(C)c(-c2sc3cc(O)ccc3c2Oc2ccc(/C=C/C(=O)O)cc2)c1` [Example 14, (E)-3-(4-((2-(2,5-dimethylphenyl)-6-hydroxybenzo[b]-thiophen-3-yl)oxy)phenyl)-acrylic acid], the IC50 in assay [2] (setting [7]) came to 238 nM.

With `O=C(/C=C/c1ccc(Oc2c(-c3ccc(F)cc3)sc3cc(O)ccc23)cc1)NCCC(F)(F)F` [Example 33, (E)-3-(4-((2-(4-fluorophenyl)-6-hydroxybenzo[b]-thiophen-3-yl)oxy)phenyl)-N-(3,3,3-trifluoropropyl)-acrylamide], the IC50 in assay [2] (setting [7]) stood at 73 nM.

For `O=C(O)/C=C/c1ccc(Oc2c(-c3ccccc3)sc3cc(O)ccc23)cc1` [Example 60, (E)-3-(4-((6-hydroxy-2-phenylbenzo[b]thiophen-3-yl)oxy)phenyl)-acrylic acid], the half-maximal inhibitory concentration (IC50) in assay [2] (setting [7]) was found to be 2310 nM.

Turning to `Cc1cc(F)ccc1-c1sc2cc(O)ccc2c1Oc1ccc(/C=C/c2n[nH]c(=O)o2)cc1` [Example 48, (E)-5-(4-((2-(4-fluoro-2-methylphenyl)-6-hydroxybenzo[b]thiophen-3-yl)oxy)styryl)-1,3,4-oxadiazol-2(3H)-one], in assay [2] (setting [7]), the half-maximal inhibitory concentration (IC50) amounted to 422 nM.

Consider `O=C(O)/C=C/c1ccc(Oc2c(-c3ccc(O)cc3)sc3cc(O)ccc23)cc1` [Example 2, (E)-3-(4-((6-hydroxy-2-(4-hydroxyphenyl)benzo[b]thiophen-3-yl)oxy)phenyl)acrylic acid], for which the “ER Percentage remaining” value in assay [1] (setting [5]) and in assay [1] (setting [3]) was 41% throughout. Besides, the 50% inhibitory concentration (IC50) in assay [2] (setting [7]), in assay [2] (setting [6]) and in assay [2] (setting [4]) was 748 nM throughout.

For `O=C(O)/C=C/c1ccc(Oc2c(-c3ccccc3Cl)sc3cc(O)ccc23)cc1` [Example 9, (E)-3-(4-((2-(2-chlorophenyl)-6-hydroxybenzo[b]-thiophen-3-yl)oxy)phenyl)-acrylic acid], in assay [2] (setting [7]), the concentration for half-maximal inhibition (IC50) is 407 nM.
